System: c-myc in 22RV-1 cells
Experiment: Human c-myc ELISA assay
Format: cell-based
Conditions: Homo sapiens; for Emax: 22Rv1, 18 h, read-out: Degradation of BRD4: Maximum inhibition (%) c-Myc ELISA in 22RV1 cells; for DC50: 22Rv1, read-out: Degradation of BRD4: DC50 (uM) c-Myc ELISA in 22RV1 cells
Method in brief: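 22RV-1 cells treated 18 h with 8-point 1:3 compound dilutions (final top 300 nM or 1 μM, 0.1% DMSO). Cells lysed in RIPA buffer with protease/phosphatase inhibitors, and c-myc protein in cleared lysate quantified by ELISA against a standard curve. DC50 reported for c-myc suppression.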

SMILES: Cc1ncsc1-c1ccc([C@H](C)NC(=O)[C@@H]2C[C@@H](O)CN2C(=O)[C@@H](NC(=O)c2ccc(OCCCNC(=O)C[C@@H]3N=C(c4ccc(Cl)cc4)c4c(sc(C)c4C)-n4c(C)nnc43)cn2)C(C)(C)C)cc1 [Example 114, 5-(3-{2-[(9S)-7-(4-chlorophenyl)-4,5,13-trimethyl-3-thia-1,8,11,12-tetraazatricyclo[8.3.0.0^2,^6]trideca-2(6),4,7,10,12-pentaen-9-yl]acetamido}propoxy)-N-[(2S)-1-[(2S,4R)-4-hydroxy-2-{[(1S)-1-[4-(4-methyl-1,3-thiazol-5-yl)phenyl]ethyl]carbamoyl}pyrrolidin-1-yl]-3,3-dimethyl-1-oxobutan-2-yl]pyridine-2-carboxamide]
- Emax: 99.5%
- DC50: < 0.01 µM

SMILES: CC(=O)N[C@H](C(=O)N1C[C@H](O)C[C@H]1C(=O)NCc1ccc(-c2scnc2C)cc1OCCOCCOc1ccc(C2=NC(CC(=O)Nc3ccccc3)c3nnc(C)n3-c3sc(C)c(C)c32)cc1)C(C)(C)C (stereo partly drawn) [Example 149]
- Emax: 57.3%
- DC50: 0.1 to 1 µM

SMILES: Cc1ncsc1-c1ccc(CNC(=O)[C@@H]2C[C@@H](O)CN2C(=O)[C@@H](NC(=O)COCCCCOCCCOc2ccc(NC(=O)C[C@@H]3N=C(c4ccc(Cl)cc4)c4c(sc(C)c4C)-n4c(C)nnc43)cc2)C(C)(C)C)cc1 [Example 15]
- Emax: 100%
- DC50: 0.01 to 0.1 µM

SMILES: Cc1ncsc1-c1ccc(CNC(=O)[C@@H]2C[C@@H](O)CN2C(=O)[C@@H](NC(=O)COc2ccccc2O[C@H]2C[C@@H](NC(=O)C[C@@H]3N=C(c4ccc(Cl)cc4)c4c(sc(C)c4C)-n4c(C)nnc43)C2)C(C)(C)C)cc1 [Example 190]
- Emax: 91%
- DC50: 0.01 to 0.1 µM

SMILES: Cc1ncsc1-c1ccc(CNC(=O)[C@@H]2C[C@@H](O)CN2C(=O)[C@@H](NC(=O)COCCOCCOCCNC(=O)C[C@@H]2N=C(c3ccc(Cl)cc3)c3c(sc(C)c3C)-n3c(C)nnc32)C(C)(C)C)cc1 [Example 42, (2S,4R)-1-[(2S)-2-(2-{2-[2-(2-{2-[(9S)-7-(4-chlorophenyl)-4,5,13-trimethyl-3-thia-1,8,11,12-tetraazatricyclo[8.3.0.0^2,^6]trideca-2(6),4,7,10,12-pentaen-9-yl]acetamido}ethoxy)ethoxy]ethoxy}acetamido)-3,3-dimethylbutanoyl]-4-hydroxy-N-{[4-(4-methyl-1,3-thiazol-5-yl)phenyl]methyl}pyrrolidine-2-carboxamide]
- Emax: 98.6%
- DC50: 0.01 to 0.1 µM

SMILES: Cc1ncsc1-c1ccc(CNC(=O)[C@@H]2C[C@@H](O)CN2C(=O)[C@@H](NC(=O)CCN2CCN(CCNC(=O)C[C@@H]3N=C(c4ccc(Cl)cc4)c4c(sc(C)c4C)-n4c(C)nnc43)CC2)C(C)(C)C)cc1 [Example 103]
- Emax: 62.5%
- DC50: 0.1 to 1 µM

SMILES: Cc1ncsc1-c1ccc(CNC(=O)[C@@H]2C[C@@H](O)CN2C(=O)[C@@H](NC(=O)COCCCOCCCOc2ccc(NC(=O)C[C@@H]3N=C(c4ccccc4)c4c(sc(C)c4C)-n4c(C)nnc43)cc2)C(C)(C)C)cc1 [Example 55, (2S,4R)-1-[(2S)-3,3-dimethyl-2-(2-{3-[3-(4-{2-[(9S)-4,5,13-trimethyl-7-phenyl-3-thia-1,8,11,12-tetraazatricyclo[8.3.0.0^2,^6]trideca-2(6),4,7,10,12-pentaen-9-yl]acetamido}phenoxy)propoxy]propoxy}acetamido)butanoyl]-4-hydroxy-N-{[4-(4-methyl-1,3-thiazol-5-yl)phenyl]methyl}pyrrolidine-2-carboxamide]
- Emax: 100%
- DC50: < 0.01 µM

SMILES: Cc1ncsc1-c1ccc([C@H](C)NC(=O)[C@@H]2C[C@@H](O)CN2C(=O)[C@@H](NC(=O)COc2ccnc(O[C@H]3C[C@@H](NC(=O)C[C@@H]4N=C(c5ccc(Cl)cc5)c5c(sc(C)c5C)-n5c(C)nnc54)C3)c2)C(C)(C)C)cc1 [Example 189]
- Emax: 95.9%
- DC50: 0.01 to 0.1 µM

SMILES: Cc1ncsc1-c1ccc(CNC(=O)[C@@H]2C[C@@H](O)CN2C(=O)[C@@H](c2cc(OCCO[C@H]3C[C@@H](NC(=O)C[C@@H]4N=C(c5ccc(Cl)cc5)c5c(sc(C)c5C)-n5c(C)nnc54)C3)no2)C(C)C)cc1 [Example 317]
- Emax: 89.9%
- DC50: < 0.01 µM

Reference: US11554171B2, “Compounds and methods for the targeted degradation of bromodomain-containing proteins” (Arvinas Operations, Inc., priority 2015, dated 2023)
